Experimental findings from ChEMBL document CHEMBL1949659, “The green tea polyphenol (2)-epigallocatechin-3-gallate (EGCG) is not a β-secretase inhibitor” (Bioorg Med Chem Lett, 2012) are described below.

A word on the IC50: it is the midpoint of a concentration-inhibition curve. A word on the inhibition in vivo: it is the drop in the measured response relative to a control, in per cent.

The target in series [1] is T1, Beta-secretase 1 (Homo sapiens, UniProt P56817).
Series [2] concerns the target T1, Beta-secretase 1. This is another data set of the same source.
For series [3], the target named is T1, Beta-secretase 1. The series can be described thus: Inhibition of recombinant human BACE1 using Eu-CEVNLDAEFK-Qsy7 as substrate by HTRF assay. In general terms: TR-FRET usually uses a lanthanide donor and a delayed reading to cut background.
Series [4] addresses T1, Beta-secretase 1. The source holds these as a separate data set.
The target in series [5] is T1, Beta-secretase 1. This is another data set of the same source.
Series [6] concerns the target T1, Beta-secretase 1. This is another data set of the same source.
The target of series [7] is T1, Beta-secretase 1. This is another data set of the same source.
For series [8], the target named is T1, Beta-secretase 1. The source holds these as a separate data set.
Series [9] deals with T1, Beta-secretase 1. The source holds these as a separate data set.
Series [10] has as its target T1, Beta-secretase 1. The source holds these as a separate data set.
For series [11], the target named is T1, Beta-secretase 1. This is another data set of the same source.
Series [12] concerns the target T1, Beta-secretase 1. The source holds these as a separate data set.
A further series concerns CHO. The series can be described thus: Cytotoxicity against CHO cells transfected with human BACE1 and human APP with Swedish mutation at 1 nM to 10 uM by MTT assay. The series is classed as cell-based, Cricetulus griseus. The following applies: chinese hamster, 0.001 µM. Background: Tetrazolium dyes change colour on reduction, which living cells bring about.
Series [13] deals with T1, Beta-secretase 1. This is another data set of the same source.
Series [14] relates to Mus musculus. The series can be described thus: Antialzheimer's disease activity in mouse hippocampus assessed as inhibition of beta-secretase mediated amyloid beta1-42 production at 1.5 mg/kg. The series is classed as functional.
For series [15], the system named is Mus musculus. The series can be described thus: Antialzheimer's disease activity in mouse cortex assessed as inhibition of beta-secretase mediated amyloid beta1-42 production at 3 mg/kg. The series is classed as functional.
Series [16] relates to Mus musculus. The series can be described thus: Antialzheimer's disease activity in mouse hippocampus assessed as inhibition of beta-secretase mediated amyloid beta1-42 production at 3 mg/kg. The class given is functional.
In series [17] the test system is Mus musculus. The series can be described thus: Antialzheimer's disease activity in mouse cortex assessed as inhibition of beta-secretase mediated amyloid beta1-42 production at 1.5 mg/kg. The series is classed as functional.

T1 sequence (P56817 whole entry): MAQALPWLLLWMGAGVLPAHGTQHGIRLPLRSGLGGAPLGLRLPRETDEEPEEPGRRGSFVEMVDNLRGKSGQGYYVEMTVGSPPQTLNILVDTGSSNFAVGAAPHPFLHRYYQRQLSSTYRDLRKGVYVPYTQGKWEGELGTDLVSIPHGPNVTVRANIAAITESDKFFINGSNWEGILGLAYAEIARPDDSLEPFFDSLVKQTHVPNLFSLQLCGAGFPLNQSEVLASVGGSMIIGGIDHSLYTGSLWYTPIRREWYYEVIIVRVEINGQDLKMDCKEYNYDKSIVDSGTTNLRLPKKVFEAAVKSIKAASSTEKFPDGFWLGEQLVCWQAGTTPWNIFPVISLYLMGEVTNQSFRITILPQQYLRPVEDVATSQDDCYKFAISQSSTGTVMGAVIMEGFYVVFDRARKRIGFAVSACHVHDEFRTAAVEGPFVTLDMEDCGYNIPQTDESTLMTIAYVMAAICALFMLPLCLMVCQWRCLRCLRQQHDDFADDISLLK

As for `CSc1cccc2c(O)c(C(=O)Nc3ccc(N(CCO)CCO)cc3)cnc12`, the RFU at Beta-secretase 1 [1] amounted to 22.2; on Beta-secretase 1 [2] it was 20.2; on Beta-secretase 1 [4], 6.14; at Beta-secretase 1 [5] it was 81.5; on Beta-secretase 1 [6], 67.3; on Beta-secretase 1 [7], 73.8. Moreover, the RFU was 97.7 at Beta-secretase 1 [8]; 34.1 on Beta-secretase 1 [9]; 63.4 on Beta-secretase 1 [10]; 26.2 on Beta-secretase 1 [11]; 98.7 on Beta-secretase 1 [12]; 98.3 at Beta-secretase 1 [13]. Also, the 50% inhibitory concentration (IC50) at Beta-secretase 1 [3] was determined as 3840 nM. Further, the Activity result in the series with CHO is “Non-toxic”.

Regarding `CSc1ccc2c(O)c(C(=O)Nc3ccc(N(CCO)CCO)cc3)cnc2c1`, the RFU on Beta-secretase 1 [1] was 21.7; at Beta-secretase 1 [2] it was 14.2; at Beta-secretase 1 [4] it was 10.5; at Beta-secretase 1 [5], 94.8; on Beta-secretase 1 [6] it was 73; at Beta-secretase 1 [7] it was 79. Further, the RFU is 99.8 at Beta-secretase 1 [8]; 36.2 at Beta-secretase 1 [9]; 69.4 at Beta-secretase 1 [10]; 26.8 on Beta-secretase 1 [11]; 99.8 on Beta-secretase 1 [12]; 99.8 at Beta-secretase 1 [13]. The IC50 at Beta-secretase 1 [3] is 2810 nM. Moreover, the Activity result in the series with CHO was “Non-toxic”.

For `O=C(Nc1ccc(N(CCO)CCO)cc1)c1cnc2cc(Cl)cc(Cl)c2c1O`, the RFU at Beta-secretase 1 [1] was 24.9; on Beta-secretase 1 [2], 13.7; on Beta-secretase 1 [4] it was 4.36; on Beta-secretase 1 [5], 80.3; on Beta-secretase 1 [6], 72; at Beta-secretase 1 [7], 77.2. The RFU worked out at 87.4 on Beta-secretase 1 [8]; 39.1 on Beta-secretase 1 [9]; 65.1 on Beta-secretase 1 [10]; 26.2 at Beta-secretase 1 [11]; 87.4 on Beta-secretase 1 [12]; 90.1 at Beta-secretase 1 [13]. For the same compound, at Beta-secretase 1 [3], the IC50 came to 2270 nM. Further, the Activity result in the series on CHO was “Non-toxic”.

With `C[C@@H](NC(=O)c1cc(C(=O)N[C@@H](Cc2ccccc2)[C@H](O)CNC2CC2)cc(N(C)S(C)(=O)=O)c1)c1ccccc1`, in the series on CHO, the Activity entry was “Non-toxic”.

For the compound `O=C(O[C@@H]1Cc2c(O)cc(O)cc2O[C@@H]1c1cc(O)c(O)c(O)c1)c1cc(O)c(O)c(O)c1` [EPIGALOCATECHIN GALLATE], the inhibition in vivo at 1.5 mg/kg stood at 25.5% in the series on Mus musculus [14] and 18.6% in the series on Mus musculus [17]. In addition, the inhibition in vivo at 3 mg/kg in the series on Mus musculus [15] amounted to 51.2%; in the series on Mus musculus [16] it was 39.8%. Moreover, the Activity result with CHO is “Non-toxic”.
